Measurements published in ChEMBL document CHEMBL1201862, “PubChem BioAssay data set” (2004).
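Assay format: 96-well plates, 48-hour exposure. At the GI50, growth is halved.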 The source made the active and inactive calls. Rule as the data show it: active = GI50 up to about 1.1 µM and inactive = higher.

Tests used:
Assay in all cases: NCI-60 cell line screen, 48 h
SNB-75 = test system: SNB-75
K562 = test system: K562
SF-268 = test system: SF-268
RPMI-8226 = test system: RPMI-8226
SF-539 = test system: SF-539
SNB-19 = test system: SNB-19
UACC-62 = test system: UACC-62
HCC 2998 = test system: HCC 2998
M14 = test system: M14
UACC-257 = test system: UACC-257
NCI-H23 = test system: NCI-H23
TK-10 = test system: TK-10
HL-60 = test system: HL-60
HT-29 = test system: HT-29
RXF 393 = test system: RXF 393
IGROV-1 = test system: IGROV-1
CAKI-1 = test system: CAKI-1
SF-295 = test system: SF-295
SW-620 = test system: SW-620
OVCAR-4 = test system: OVCAR-4

Measured: GI50

CCOC(=O)NC(Nc1ncccn1)(C(F)(F)F)C(F)(F)F
inactive: SNB-75 > 100 µM | K562 > 100 µM | SF-268 > 100 µM | RPMI-8226 > 100 µM | SF-539 > 100 µM | SNB-19 > 100 µM | UACC-62 > 100 µM | HCC 2998 > 100 µM | M14 > 100 µM | UACC-257 > 100 µM | NCI-H23 > 100 µM | TK-10 > 100 µM | HL-60 > 100 µM | HT-29 > 100 µM | RXF 393 > 100 µM

Cc1nc(O)nc(O)c1/C=C/C(=O)O
inactive: SNB-75 > 1000 µM | IGROV-1 > 1000 µM | K562 > 1000 µM | SF-268 > 1000 µM | RPMI-8226 > 1000 µM | SF-539 > 1000 µM | SNB-19 > 1000 µM | UACC-62 > 1000 µM | CAKI-1 > 1000 µM | HCC 2998 > 1000 µM | UACC-257 > 1000 µM | NCI-H23 > 1000 µM | SF-295 > 1000 µM | HL-60 > 1000 µM | SW-620 > 1000 µM | HT-29 > 1000 µM | OVCAR-4 > 1000 µM | RXF 393 > 1000 µM

CCN1c2ccccc2-n2c(C)nnc2-c2c(-c3ccccc3)n[nH]c21
inactive: SNB-75 67 µM | IGROV-1 21.4 µM | K562 4.83 µM | SF-268 35.8 µM | RPMI-8226 14.8 µM | SF-539 43.4 µM | SNB-19 42.9 µM | UACC-62 22.4 µM | CAKI-1 > 10 µM | M14 26.4 µM | UACC-257 > 100 µM | NCI-H23 35.5 µM | TK-10 41.4 µM | SF-295 31 µM | HL-60 12.4 µM | SW-620 36.2 µM | HT-29 24.5 µM | OVCAR-4 22 µM | RXF 393 44.5 µM

Cc1cc(NC(=S)Nc2ccccc2)c(NC(=S)Nc2ccccc2)cc1C
inactive: SNB-75 27 µM | IGROV-1 22.8 µM | K562 9.44 µM | SF-268 36.8 µM | RPMI-8226 8.47 µM | SF-539 16 µM | SNB-19 47.9 µM | UACC-62 18.2 µM | CAKI-1 9.91 µM | HCC 2998 20.6 µM | UACC-257 44 µM | NCI-H23 37.2 µM | SF-295 11.4 µM | HL-60 1.9 µM | SW-620 11.6 µM | HT-29 36.6 µM | OVCAR-4 32.3 µM | RXF 393 > 46.8 µM

CC1C(=O)C(C)C(c2ccco2)N(N=O)C1c1ccco1 (stereo not drawn)
inactive: SNB-75 > 82.8 µM | IGROV-1 > 100 µM | K562 > 100 µM | SF-268 > 100 µM | RPMI-8226 > 100 µM | SF-539 > 100 µM | SNB-19 > 84.1 µM | UACC-62 > 100 µM | CAKI-1 > 100 µM | HCC 2998 > 100 µM | UACC-257 > 100 µM | NCI-H23 > 100 µM | SF-295 > 100 µM | HL-60 > 100 µM | SW-620 > 100 µM | HT-29 > 100 µM | OVCAR-4 > 100 µM | RXF 393 > 100 µM

O=C1CCC(=O)C1=NNc1ccccc1
inactive: SNB-75 > 100 µM | IGROV-1 > 100 µM | K562 > 100 µM | SF-268 > 100 µM | SF-539 > 100 µM | SNB-19 > 100 µM | UACC-62 8.38 µM | CAKI-1 > 100 µM | HCC 2998 > 100 µM | M14 > 100 µM | UACC-257 > 100 µM | NCI-H23 > 100 µM | TK-10 > 100 µM | SF-295 > 100 µM | HL-60 > 100 µM | SW-620 > 100 µM | HT-29 > 100 µM | OVCAR-4 > 100 µM | RXF 393 > 100 µM

CCOc1ncn(-c2ccc(NC(=S)Nc3ncccn3)cc2)n1
inactive: SNB-75 12.1 µM | IGROV-1 26.5 µM | K562 25.8 µM | SF-268 > 100 µM | RPMI-8226 10.6 µM | SF-539 15.4 µM | SNB-19 54 µM | UACC-62 28.8 µM | HCC 2998 25.9 µM | M14 31.5 µM | UACC-257 28.9 µM | NCI-H23 81.5 µM | TK-10 41.3 µM | SF-295 97.5 µM | HL-60 16.2 µM | SW-620 54.6 µM | HT-29 13 µM | OVCAR-4 21.8 µM

CC(=O)OC1COC(N2c3ccccc3[C@@H]3CCc4c([nH]c5ccccc45)[C@@H]32)C(OC(C)=O)C1OC(C)=O.CC(=O)OC1COC(N2c3ccccc3[C@H]3CCc4c([nH]c5ccccc45)[C@H]32)C(OC(C)=O)C1OC(C)=O (stereo partly drawn)
inactive: SNB-75 11.4 µM | IGROV-1 2.76 µM | SF-268 30.9 µM | RPMI-8226 12 µM | SNB-19 > 100 µM | UACC-62 60.5 µM | CAKI-1 27.7 µM | HCC 2998 40.1 µM | M14 42.6 µM | UACC-257 72.1 µM | NCI-H23 57.8 µM | TK-10 > 100 µM | SF-295 21.6 µM | SW-620 > 100 µM | HT-29 62.2 µM | OVCAR-4 71.8 µM

CC1=Nc2c(N)nc(N)nc2N(C)C1
inactive: SNB-75 > 100 µM | IGROV-1 > 100 µM | K562 > 100 µM | SF-268 > 100 µM | RPMI-8226 > 100 µM | SF-539 > 100 µM | SNB-19 > 100 µM | UACC-62 > 100 µM | CAKI-1 > 100 µM | M14 > 100 µM | UACC-257 > 100 µM | NCI-H23 > 100 µM | TK-10 > 100 µM | SF-295 > 100 µM | HL-60 > 100 µM | SW-620 > 100 µM | RXF 393 > 100 µM

CC(Sc1ccccc1)C(CO)(CO)[N+](=O)[O-] (stereo not drawn)
inactive: SNB-75 20.5 µM | IGROV-1 15.6 µM | K562 11.2 µM | SF-268 22.8 µM | RPMI-8226 18.9 µM | SF-539 16.7 µM | SNB-19 21.4 µM | UACC-62 15.8 µM | CAKI-1 17.9 µM | HCC 2998 17.2 µM | M14 16.9 µM | UACC-257 14 µM | NCI-H23 16.8 µM | TK-10 18.9 µM | SF-295 14.7 µM | HL-60 3.58 µM | SW-620 14.4 µM | HT-29 16.3 µM | OVCAR-4 17.8 µM | RXF 393 16.4 µM

CCC1C(C#N)=C(O)NC(O)=C1C#N
inactive: SNB-75 > 100 µM | IGROV-1 > 100 µM | SF-268 > 100 µM | RPMI-8226 > 100 µM | SF-539 > 100 µM | SNB-19 > 100 µM | UACC-62 > 100 µM | CAKI-1 > 100 µM | HCC 2998 > 100 µM | M14 > 100 µM | UACC-257 > 100 µM | NCI-H23 > 100 µM | TK-10 > 100 µM | SF-295 > 100 µM | SW-620 > 100 µM | HT-29 > 100 µM | OVCAR-4 > 100 µM | RXF 393 > 100 µM

CCP(=O)(CC)C(Cl)(Cl)C(O)C(Cl)(Cl)Cl (stereo not drawn)
inactive: SNB-75 > 100 µM | IGROV-1 > 100 µM | K562 > 100 µM | RPMI-8226 > 100 µM | SNB-19 > 100 µM | CAKI-1 > 100 µM | HCC 2998 > 100 µM | M14 > 100 µM | UACC-257 > 100 µM | NCI-H23 > 100 µM | TK-10 > 100 µM | SF-295 > 100 µM | HL-60 > 100 µM | SW-620 > 100 µM | HT-29 > 100 µM | OVCAR-4 > 100 µM

O=C(CCN1CCOCC1)/C(=C/c1ccccc1)c1ccccc1
inactive: SNB-75 9.14 µM | IGROV-1 9.93 µM | K562 1.89 µM | SF-268 7.11 µM | RPMI-8226 2 µM | SF-539 2.92 µM | SNB-19 11 µM | UACC-62 2.49 µM | CAKI-1 5.14 µM | HCC 2998 15 µM | UACC-257 2.74 µM | NCI-H23 4.15 µM | SF-295 12.3 µM | HL-60 1.79 µM | SW-620 2.47 µM | HT-29 4.49 µM | OVCAR-4 10.3 µM | RXF 393 1.57 µM

C=C1C(=O)OC2C[C@@]3(C)CCCC(=C)C3CC12 (stereo partly drawn)
inactive: SNB-75 7.23 µM | IGROV-1 19 µM | SF-268 12.9 µM | SF-539 1.95 µM | SNB-19 11.2 µM | UACC-62 5.56 µM | CAKI-1 6.62 µM | HCC 2998 13.6 µM | M14 6.34 µM | UACC-257 10.3 µM | NCI-H23 13.7 µM | TK-10 11.4 µM | SF-295 11.4 µM | SW-620 3.92 µM | HT-29 7.14 µM | OVCAR-4 13.4 µM | RXF 393 2.77 µM

CC(=O)c1c(-c2ccco2)c(C#N)c(=S)n(C2OC(CO)C(O)C(O)C2O)c1-c1ccccc1 (stereo not drawn)
inactive: SNB-75 69.7 µM | IGROV-1 > 100 µM | K562 58.9 µM | SF-268 61.2 µM | RPMI-8226 > 100 µM | SF-539 45.2 µM | SNB-19 22.4 µM | UACC-62 32 µM | CAKI-1 > 100 µM | M14 40.5 µM | UACC-257 > 100 µM | NCI-H23 31.8 µM | TK-10 > 100 µM | SF-295 52.7 µM | HL-60 41.2 µM | SW-620 76 µM | HT-29 > 100 µM | OVCAR-4 73.3 µM | RXF 393 37 µM

COc1ccc(-c2cc(O)c3c(C)ccnc3n2)cc1
inactive: IGROV-1 5.64 µM | K562 3.85 µM | SF-268 15.1 µM | RPMI-8226 9.31 µM | SF-539 17.4 µM | SNB-19 36.8 µM | UACC-62 10.6 µM | CAKI-1 33.8 µM | HCC 2998 22.5 µM | M14 10.8 µM | UACC-257 33.7 µM | NCI-H23 19 µM | TK-10 41.1 µM | SW-620 4.81 µM | HT-29 4.93 µM | OVCAR-4 24.8 µM | RXF 393 19.9 µM
